Results taken from patent US9421209B2, “Kinase modulators” (Rhizen Pharmaceuticals SA, priority 2009, dated 2016).
Values belong to the molecule of their own block, whether it stands above or below them.

Assays:
P110 δ/Pi3K δ = P110 δ/Pi3K δ (Homo sapiens, UniProt O00329); test: Fluorescent (HTRF) determination of PI3K enzyme activity, δ isoform; type: biochemical; set-up: inhibition: dose or concentration left out as unconfirmed; conditions: for IC50: read-out: P110 δ/ Pi3K δ IC 50 nM
Method in brief: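 HTRF kit detecting PIP3 formed from PIP2 by human PI3Kδ, at room temperature. Reaction started with 400 μM ATP (addition concentration) for 30 min, then stopped, and detection mix incubated 6–18 h in the dark. Percent inhibition taken against blank and enzyme controls, and IC50 fitted.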

P110 δ/Pi3K δ, sequence (O00329 whole entry, canonical isoform): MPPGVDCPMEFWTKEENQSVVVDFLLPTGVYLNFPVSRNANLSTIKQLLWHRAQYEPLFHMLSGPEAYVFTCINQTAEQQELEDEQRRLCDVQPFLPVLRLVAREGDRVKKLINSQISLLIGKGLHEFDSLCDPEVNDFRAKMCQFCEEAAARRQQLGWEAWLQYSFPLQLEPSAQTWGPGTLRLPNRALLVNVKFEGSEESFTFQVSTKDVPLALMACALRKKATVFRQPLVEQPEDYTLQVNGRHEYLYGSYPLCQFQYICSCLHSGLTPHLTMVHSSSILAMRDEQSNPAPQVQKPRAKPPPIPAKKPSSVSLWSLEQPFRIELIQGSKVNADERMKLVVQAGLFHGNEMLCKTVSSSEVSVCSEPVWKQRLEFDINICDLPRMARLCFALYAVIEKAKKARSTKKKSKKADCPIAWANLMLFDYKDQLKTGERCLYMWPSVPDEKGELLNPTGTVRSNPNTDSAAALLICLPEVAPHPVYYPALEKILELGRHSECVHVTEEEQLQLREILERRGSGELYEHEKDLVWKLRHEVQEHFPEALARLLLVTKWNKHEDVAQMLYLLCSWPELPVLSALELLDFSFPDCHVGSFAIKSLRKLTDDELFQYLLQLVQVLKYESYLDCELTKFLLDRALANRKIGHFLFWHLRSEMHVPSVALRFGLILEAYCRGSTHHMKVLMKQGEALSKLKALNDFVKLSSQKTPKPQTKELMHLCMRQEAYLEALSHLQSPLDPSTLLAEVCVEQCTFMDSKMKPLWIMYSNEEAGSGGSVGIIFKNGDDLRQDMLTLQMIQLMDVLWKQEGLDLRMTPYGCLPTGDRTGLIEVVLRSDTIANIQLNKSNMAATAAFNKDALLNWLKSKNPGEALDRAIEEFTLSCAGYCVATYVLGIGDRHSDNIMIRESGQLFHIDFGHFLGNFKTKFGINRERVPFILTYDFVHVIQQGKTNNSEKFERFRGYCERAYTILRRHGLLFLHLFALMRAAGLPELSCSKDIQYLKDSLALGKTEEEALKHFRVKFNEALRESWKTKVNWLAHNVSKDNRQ
P110 δ/Pi3K δ, sequence (P27986 whole entry partner, canonical isoform): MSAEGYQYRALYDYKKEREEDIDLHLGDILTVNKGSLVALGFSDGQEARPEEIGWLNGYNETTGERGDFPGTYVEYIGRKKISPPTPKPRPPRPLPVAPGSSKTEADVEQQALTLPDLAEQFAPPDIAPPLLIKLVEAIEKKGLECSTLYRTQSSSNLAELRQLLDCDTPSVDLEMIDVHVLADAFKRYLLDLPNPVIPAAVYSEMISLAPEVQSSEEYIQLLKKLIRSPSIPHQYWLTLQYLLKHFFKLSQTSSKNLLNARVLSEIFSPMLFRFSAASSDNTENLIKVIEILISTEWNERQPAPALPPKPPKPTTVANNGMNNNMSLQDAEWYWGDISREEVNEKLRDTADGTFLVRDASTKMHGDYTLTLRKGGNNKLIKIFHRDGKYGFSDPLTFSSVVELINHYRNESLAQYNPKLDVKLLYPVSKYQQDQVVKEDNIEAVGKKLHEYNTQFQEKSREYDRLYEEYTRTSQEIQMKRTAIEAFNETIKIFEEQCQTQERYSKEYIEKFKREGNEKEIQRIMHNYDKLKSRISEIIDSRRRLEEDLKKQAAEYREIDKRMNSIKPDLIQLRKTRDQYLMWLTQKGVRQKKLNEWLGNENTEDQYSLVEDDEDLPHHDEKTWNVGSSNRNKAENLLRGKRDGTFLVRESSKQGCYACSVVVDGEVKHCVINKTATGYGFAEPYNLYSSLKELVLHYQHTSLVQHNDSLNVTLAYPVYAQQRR

Structure (SMILES): Cc1n[nH]c(C)c1-c1nn(C(C)c2oc3ccccc3c(=O)c2-c2cccc(F)c2)c2ncnc(N)c12 (stereo not shown) [Example 78, 2-(1-(4-amino-3-(3,5-dimethyl-1H-pyrazol-4-yl)-1H-pyrazolo[3,4-d]pyrimidin-1-yl)ethyl)-3-(3-fluorophenyl)-4H-chromen-4-one]
- inhibition (P110 δ/Pi3K δ): < 50%
- melting point: 240 to 243 °C

Structure (SMILES): CC(c1oc2ccccc2c(=O)c1-c1cccc(F)c1)n1nc(-c2ccc3cn[nH]c3c2)c2c(N)ncnc21 (stereo not shown) [Example 80, 2-(1-(4-amino-3-(1H-indazol-6-yl)-1H-pyrazolo[3,4-d]pyrimidin-1-yl)ethyl)-3-(3-fluorophenyl)-4H-chromen-4-one]
- inhibition (P110 δ/Pi3K δ): < 50%
- melting point: 206 to 208 °C

Structure (SMILES): CC(c1oc2ccccc2c(=O)c1-c1cccc(F)c1)n1nc(-c2ccccc2CO)c2c(N)ncnc21 (stereo not shown) [Example 81, 2-(1-(4-amino-3-(2-(hydroxymethyl)phenyl)-1H-pyrazolo[3,4-d]pyrimidin-1-yl)ethyl)-3-(3-fluorophenyl)-4H-chromen-4-one]
- inhibition (P110 δ/Pi3K δ): < 50%
- melting point: 185 to 189 °C

Structure (SMILES): CC(c1oc2ccccc2c(=O)c1-c1cccc(F)c1)n1nc(C#CCO)c2c(N)ncnc21 (stereo not shown) [Example 83, 2-(1-(4-amino-3-(3-hydroxyprop-1-ynyl)-1H-pyrazolo[3,4-d]pyrimidin-1-yl)ethyl)-3-(3-fluorophenyl)-4H-chromen-4-one]
- inhibition (P110 δ/Pi3K δ): 50 to 100%
- melting point: 171 to 173 °C

Structure (SMILES): CC(c1oc2ccccc2c(=O)c1-c1cccc(F)c1)n1nc(-c2cccc(OC(F)(F)F)c2)c2c(N)ncnc21 (stereo not shown) [Example 87, 2-(1-(4-amino-3-(3-(trifluoromethoxy)phenyl)-1H-pyrazolo[3,4-d]pyrimidin-1-yl)ethyl)-3-(3-fluorophenyl)-4H-chromen-4-one]
- inhibition (P110 δ/Pi3K δ): 50 to 100%
- melting point: 155 to 157 °C

Structure (SMILES): Nc1ncnc2c1ncn2Cc1oc2ccccc2c(=O)c1-c1cccc(F)c1 [Example 89, 2-((6-amino-9H-purin-9-yl)methyl)-3-(3-fluorophenyl)-4H-chromen-4-one]
- inhibition (P110 δ/Pi3K δ): < 50%
- melting point: 224 to 227 °C

Structure (SMILES): Nc1cccc(-c2nn(Cc3oc4ccccc4c(=O)c3-c3ccccc3)c3ncnc(N)c23)c1 [Example 91, 2-((4-amino-3-(3-aminophenyl)-1H-pyrazolo[3,4-d]pyrimidin-1-yl)methyl)-3-phenyl-4H-chromen-4-one]
- inhibition (P110 δ/Pi3K δ): < 50%
- melting point: 157 to 159 °C

Structure (SMILES): CC(c1oc2ccccc2c(=O)c1-c1cccc(F)c1)n1nc(-c2cnc(N)nc2)c2c(N)ncnc21 (stereo not shown) [Example 93, 2-(1-(4-amino-3-(2-aminopyrimidin-5-yl)-1H-pyrazolo[3,4-d]pyrimidin-1-yl)ethyl)-3-(3-fluorophenyl)-4H-chromen-4-one]
- inhibition (P110 δ/Pi3K δ): 50 to 100%
- melting point: 264 to 268 °C

Structure (SMILES): CC(c1oc2ccccc2c(=O)c1-c1cccc(F)c1)n1nc(-c2ccc3cc[nH]c3c2)c2c(N)ncnc21 (stereo not shown) [Example 94, 2-(1-(4-amino-3-(1H-indol-6-yl)-1H-pyrazolo[3,4-d]pyrimidin-1-yl)ethyl)-3-(3-fluorophenyl)-4H-chromen-4-one]
- inhibition (P110 δ/Pi3K δ): 50 to 100%
- melting point: 222 to 225 °C

Structure (SMILES): COc1ccc(-c2nn(C(C)c3oc4ccccc4c(=O)c3-c3cccc(F)c3)c3ncnc(N)c23)cc1OC (stereo not shown) [Example 97, 2-(1-(4-amino-3-(3,4-dimethoxyphenyl)-1H-pyrazolo[3,4-d]pyrimidin-1-yl)ethyl)-3-(3-fluorophenyl)-4H-chromen-4-one]
- inhibition (P110 δ/Pi3K δ): 50 to 100%
- melting point: 232 to 235 °C

Structure (SMILES): CC(c1oc2ccccc2c(=O)c1-c1cccc(F)c1)n1nc(-c2ccc(O)c(O)c2)c2c(N)ncnc21 (stereo not shown) [Example 98, 2-(1-(4-amino-3-(3,4-dihydroxyphenyl)-1H-pyrazolo[3,4-d]pyrimidin-1-yl)ethyl)-3-(3-fluorophenyl)-4H-chromen-4-one]
- inhibition (P110 δ/Pi3K δ): 50 to 100%
- IC50 (P110 δ/Pi3K δ): < 250 nM
- melting point: 193 to 195 °C

Structure (SMILES): Cc1n[nH]c2cc(-c3nn(Cc4oc5ccccc5c(=O)c4-c4cccc(F)c4)c4ncnc(N)c34)ccc12 [Example 99, 2-((4-amino-3-(3-methyl-1H-indazol-6-yl)-1H-pyrazolo[3,4-d]pyrimidin-1-yl)methyl)-3-(3-fluorophenyl)-4H-chromen-4-one]
- inhibition (P110 δ/Pi3K δ): 50 to 100%
- melting point: 246 to 248 °C

Structure (SMILES): CC(c1oc2ccccc2c(=O)c1-c1cccc(F)c1)n1nc(-c2ccc3[nH]ccc3c2)c2c(N)ncnc21 (stereo not shown) [Example 100, 2-(1-(4-amino-3-(1H-indol-5-yl)-1H-pyrazolo[3,4-d]pyrimidin-1-yl)ethyl)-3-(3-fluorophenyl)-4H-chromen-4-one]
- inhibition (P110 δ/Pi3K δ): 50 to 100%
- melting point: 197 to 199 °C

Structure (SMILES): Cc1c[nH]c2ccc(-c3nn(C(C)c4oc5ccccc5c(=O)c4-c4cccc(F)c4)c4ncnc(N)c34)cc12 (stereo not shown) [Example 101, 2-(1-(4-Amino-3-(3-methyl-1H-indol-5-yl)-1H-pyrazolo[3,4-d]pyrimidin-1-yl)ethyl)-3-(3-fluorophenyl)-4H-chromen-4-one]
- inhibition (P110 δ/Pi3K δ): < 50%
- melting point: 171 to 173 °C

Structure (SMILES): Cc1n[nH]c2cc(-c3nn(Cc4oc5ccc(F)cc5c(=O)c4-c4ccccc4)c4ncnc(N)c34)ccc12 [Example 103, 2-((4-amino-3-(3-methyl-1H-indazol-6-yl)-1H-pyrazolo[3,4-d]pyrimidin-1-yl)methyl)-6-fluoro-3-phenyl-4H-chromen-4-one]
- inhibition (P110 δ/Pi3K δ): 50 to 100%
- IC50 (P110 δ/Pi3K δ): < 250 nM
- melting point: 277 to 279 °C

Structure (SMILES): Cc1n[nH]c2cc(-c3nn(C(C)c4oc5ccccc5c(=O)c4-c4ccccc4)c4ncnc(N)c34)ccc12 (stereo not shown) [Example 104, 2-(1-(4-amino-3-(3-methyl-1H-indazol-6-yl)-1H-pyrazolo[3,4-d]pyrimidin-1-yl)ethyl)-3-phenyl-4H-chromen-4-one]
- inhibition (P110 δ/Pi3K δ): 50 to 100%
- IC50 (P110 δ/Pi3K δ): < 250 nM
- melting point: 249 to 252 °C

Structure (SMILES): CC(C)Oc1ccc(F)c(-c2nn(C(C)c3oc4ccccc4c(=O)c3-c3cccc(F)c3)c3ncnc(N)c23)c1 (stereo not shown) [Example 132, 2-(1-(4-amino-3-(2-fluoro-5-isopropoxyphenyl)-1H-pyrazolo[3,4-d]pyrimidin-1-yl)ethyl)-3-(3-fluorophenyl)-4H-chromen-4-one]
- inhibition (P110 δ/Pi3K δ): < 50%
- melting point: 198 to 201 °C

Structure (SMILES): COc1ccc(-c2nn(C(C)c3oc4ccccc4c(=O)c3-c3cccc(F)c3)c3ncnc(N)c23)cc1Cl (stereo not shown) [Example 157, 2-(1-(4-amino-3-(3-chloro-4-methoxyphenyl)-1H-pyrazolo[3,4-d]pyrimidin-1-yl)ethyl)-3-(3-fluorophenyl)-4H-chromen-4-one]
- inhibition (P110 δ/Pi3K δ): < 50%
- melting point: 246 to 249 °C

Second part, the molecule after the results:

- inhibition (P110 δ/Pi3K δ): 50 to 100%
- melting point: 122 to 124 °C
Structure (SMILES): CC(c1oc2ccccc2c(=O)c1-c1cccc(F)c1)n1nc(-c2cc(O)cc(Cl)c2)c2c(N)ncnc21 (stereo not shown) [Example 86a, 2-(1-(4-amino-3-(3-chloro-5-hydroxyphenyl)-1H-pyrazolo[3,4-d]pyrimidin-1-yl)ethyl)-3-(3-fluorophenyl)-4H-chromen-4-one]

- inhibition (P110 δ/Pi3K δ): 50 to 100%
- melting point: 244 to 247 °C
Structure (SMILES): CC(c1oc2ccccc2c(=O)c1-c1cccc(F)c1)n1nc(-c2ccc(O)cc2)c2c(N)ncnc21 (stereo not shown) [Example 88a, 2-(1-(4-amino-3-(4-hydroxyphenyl)-1H-pyrazolo[3,4-d]pyrimidin-1-yl)ethyl)-3-(3-fluorophenyl)-4H-chromen-4-one]

- inhibition (P110 δ/Pi3K δ): 50 to 100%
- IC50 (P110 δ/Pi3K δ): < 250 nM
- melting point: 134 to 136 °C
Structure (SMILES): CC(c1oc2ccccc2c(=O)c1-c1cccc(F)c1)n1nc(-c2ccc(Cl)c(O)c2)c2c(N)ncnc21 (stereo not shown) [Example 95a, 2-(1-(4-amino-3-(4-chloro-3-hydroxyphenyl)-1H-pyrazolo[3,4-d]pyrimidin-1-yl)ethyl)-3-(3-fluorophenyl)-4H-chromen-4-one]

- inhibition (P110 δ/Pi3K δ): 50 to 100%
- melting point: 192 to 195 °C
Structure (SMILES): CC(c1oc2ccccc2c(=O)c1-c1cccc(F)c1)n1nc(-c2cc(O)ccc2Cl)c2c(N)ncnc21 (stereo not shown) [Example 96a, 2-(1-(4-amino-3-(2-chloro-5-hydroxyphenyl)-1H-pyrazolo[3,4-d]pyrimidin-1-yl)ethyl)-3-(3-fluorophenyl)-4H-chromen-4-one]

- inhibition (P110 δ/Pi3K δ): < 50%
- melting point: 275 to 278 °C
Structure (SMILES): CC(c1oc2ccccc2c(=O)c1-c1cccc(F)c1)n1nc(-c2ccc(CN)s2)c2c(N)ncnc21 (stereo not shown) [Example 102a, 2-(1-(4-amino-3-(5-(aminomethyl)thiophen-2-yl)-1H-pyrazolo[3,4-d]pyrimidin-1-yl)ethyl)-3-(3-fluorophenyl)-4H-chromen-4-one]

- inhibition (P110 δ/Pi3K δ): < 50%
- melting point: 91 to 94 °C
Structure (SMILES): CC(c1oc2ccccc2c(=O)c1-c1cccc(F)c1)n1nc(-c2ccc(N)cc2)c2c(N)ncnc21 (stereo not shown) [Example 107a, 2-(1-(4-amino-3-(4-aminophenyl)-1H-pyrazolo[3,4-d]pyrimidin-1-yl)ethyl)-3-(3-fluorophenyl)-4H-chromen-4-one]

- inhibition (P110 δ/Pi3K δ): 50 to 100%
- melting point: 127 to 129 °C
Structure (SMILES): Nc1ncnc2c1c(-c1cc(O)cc(F)c1)nn2Cc1oc2ccc(F)cc2c(=O)c1-c1cccc(F)c1 [Example 120a, 2-((4-amino-3-(3-fluoro-5-hydroxyphenyl)-1H-pyrazolo[3,4-d]pyrimidin-1-yl)methyl)-6-fluoro-3-(3-fluorophenyl)-4H-chromen-4-one]

- inhibition (P110 δ/Pi3K δ): 50 to 100%
- melting point: 193 to 196 °C
Structure (SMILES): CC(c1oc2ccc(F)cc2c(=O)c1-c1cccc(F)c1)n1nc(-c2cccc(O)c2)c2c(N)ncnc21 (stereo not shown) [Example 121a, 2-(1-(4-amino-3-(3-hydroxyphenyl)-1H-pyrazolo[3,4-d]pyrimidin-1-yl)ethyl)-6-fluoro-3-(3-fluorophenyl)-4H-chromen-4-one]

- inhibition (P110 δ/Pi3K δ): < 50%
- melting point: 274 to 278 °C
Structure (SMILES): Nc1ncnc2c1c(-c1cc(F)c(O)c(F)c1)nn2Cc1oc2ccc(F)cc2c(=O)c1-c1cccc(F)c1 [Example 127a, 2-((4-amino-3-(3,5-difluoro-4-hydroxyphenyl)-1H-pyrazolo[3,4-d]pyrimidin-1-yl)methyl)-6-fluoro-3-(3-fluorophenyl)-4H-chromen-4-one]
